Experimental data: publication PMC3525568, “The Natively Disordered Loop of Bcl-2 Undergoes Phosphorylation-Dependent Conformational Change and Interacts with Pin1” (PLoS ONE, 2012)
Where a SMILES comes first, the peptide text is derived from it. [ ]: non-standard residue; d: D form. pS = N[C@@H](COP(=O)(O)O)C(=O)O

Columns and labels:
Pin1 [1] = target: T1, Pin1 (Homo sapiens, UniProt Q13526); experiment: Binding of peptides to 15N-labeled Pin1 by 2D 1H-15N HSQC NMR titration; set-up: decahistidine (10His) (N); made in house; own knowledge; details: 0.1 mM 15N-labeled Pin1, 90% H2O/10% D2O, 20 mM phosphate pH 7.0, 20 mM NaCl, 1 mM DTT, 0.01% NaN3, 300 K; HSQC chemical shift change vs ligand/protein ratio
Description: NMR data were acquired at 300 K on a Bruker Avance 600 equipped with a cryoprobe accessory. The NMR samples contained 0.1 mM ^15N-labeled Pin 1 in 90% H2O/10% D2O in 20 mM phosphate buffer, pH 7.0, 20 mM NaCl, 1 mM DTT, 0.01% NaN3. Chemical shift perturbations were monitored with 2D ^1H-^15N heteronuclear single quantum correlation spectroscopy (HSQC) upon addition of peptides. NMR spectra were processed using Bruker Topspin1.3. For the dissociation constant determination, lyophilized aliquots of peptides were mixed with ^15N-labeled Pin1 with different molar ratios and 2D ^15N HSQC was recorded. The dissociation constant, KD is expressed as [P]*[L]/[PL] and calculated as previously described, [21], [22].
Figure 3 Pin 1 binds to the phosphopeptide derived from the flexible loop of Bcl-2. The ^15N-labeled Pin1 (0.1 mM) was recorded with (A) 0.8 mM S87 and (B) phosphorylated S87 (pS87). The ^1H-^15N-HSQC spectra with or without peptide are show in blue and red, respectively. (C, D) Some of the amino acid chemical shifts change with the increasing peptide concentration. The arrows show the direction of chemical shift perturbations with an increasing concentration of ligand. (E, F) The relationship between chemical shift change and the ratio between ligand and protein was drawn. Values of KD were calculated from the graphs using the equation described in “Materials and methods”.

Pin1 [2] = target: T1, Pin1; experiment: 1H-15N HSQC titration of 15N-Pin1; details: reference: unphosphorylated S87 peptide; sites S87
Pin1 [3] = target: T1, Pin1; experiment: 1H-15N HSQC of 15N-Pin1 with peptide
ERK2 [4] = experiment: Phosphorylation of Bcl-2 proteins by ERK2 (γ-32P-ATP, autoradiography); type: biochemical; details: 50 mM Tris-HCl, 10 mM MgCl2, 2 mM DTT, 1 mM EGTA, 0.01% Brij 35, pH 7.5, SDS-PAGE
Description: (§1) For the phosphorylation of Bcl-2 by JNK, the purified Bcl-2 (6 µM) was incubated with 0.5 µM JNK for 1 h at 30°C in a buffer containing 10 mM Tris-HCl pH 7.5, 25 mM MgCl2, 1 mM EGTA, 1 mM ATP, 1 µCi γ-^32P-ATP, and 250 µM PMSF. For the phosphorylation of Bcl-2 by ERK2, ERK2 was incubated with purified Bcl-2 in a buffer containing 50 mM Tris-HCl, 10 mM MgCl2, 2 mM dithiothreitol (DTT), 1 mM EGTA, and 0.01% Brij 35 detergent, pH 7.5. The samples were separated on 12.5% gels by SDS-PAGE and visualized using autoradiography.
(§2) Supplementary file pone.0052047.s001.tif: Figure S1 Phosphorylation of Bcl-2 in the loop domain by ERK2 and JNK. (A–B) Different peptides (200 µM) were added into the reaction mixture with either (A) JNK (10 µM) or (B) ERK2 (10 µM). After reaction at 30°C for 1 h, the samples were heated at 90°C to inactivate the kinase and loaded onto C-18 column for reverse phase-HPLC analysis. (C) Point mutations of Bcl-2 (T56A and S87A) were used for the kinase reaction as described in “Materials and methods”, and the phosphorylation reactions were analyzed by using γ-^32P-ATP and followed by autoradiography. […] (E) The wild-type Bcl-2 and the flexible loop-deletion Bcl-2 mutant Bcl-2, Δ(V35–V89):6A were subject to the phosphorylation reactions by ERK2 and JNK. 1, Bcl-2 with ERK2; 2, Bcl-2Δ(V35–V89):6A with ERK2; 3, Bcl-2 with JNK; 4, Bcl-2Δ(V35–V89):6A with JNK. […]

JNK [5] = experiment: Phosphorylation of Bcl-2 proteins by JNK (γ-32P-ATP, autoradiography); type: biochemical; details: Bcl-2 6 µM, JNK 0.5 µM, 1 h at 30°C, pH 7.5, γ-32P-ATP, SDS-PAGE
Description: as §1, §2

ERK2 [6] = experiment: Phosphorylation of Bcl-2 loop peptides by ERK2 (HPLC); type: biochemical; details: peptide 200 µM, ERK2 10 µM, 50 mM Tris-HCl, 10 mM MgCl2, 2 mM DTT, 1 mM EGTA, 0.01% Brij 35, pH 7.5, 30°C, 1 h; C-18 HPLC, 225 nm
Description: as §1
(§3) The loop peptides (200 µM) were mixed with JNK or ERK2 (10 µM) in the reaction buffer as described above in the “Phosphorylation of Bcl-2”. The reaction was performed at 30°C for 1 h. The samples were passed through a Ni^2+-NTA column to remove kinases fused with the histidine-tag, and the flow-through samples were combined and loaded on a C-18 column for HPLC analysis. The samples (20 µl) were injected into the C-18 column with a flow rate of 1 ml/min. The peptide was eluted with a linear gradient of acetonitrile from 0 to 30%, and the peptide peaks were detected at 225 nm.
(§4) Supplementary file pone.0052047.s001.tif: Figure S1 Phosphorylation of Bcl-2 in the loop domain by ERK2 and JNK. (A–B) Different peptides (200 µM) were added into the reaction mixture with either (A) JNK (10 µM) or (B) ERK2 (10 µM). After reaction at 30°C for 1 h, the samples were heated at 90°C to inactivate the kinase and loaded onto C-18 column for reverse phase-HPLC analysis. (C) Point mutations of Bcl-2 (T56A and S87A) were used for the kinase reaction as described in “Materials and methods”, and the phosphorylation reactions were analyzed by using γ-^32P-ATP and followed by autoradiography. […] (E) The wild-type Bcl-2 and the flexible loop-deletion Bcl-2 mutant Bcl-2, Δ(V35–V89):6A were subject to the phosphorylation reactions by ERK2 and JNK. 1, Bcl-2 with ERK2; 2, Bcl-2Δ(V35–V89):6A with ERK2; 3, Bcl-2 with JNK; 4, Bcl-2Δ(V35–V89):6A with JNK. (TIF) Click here for additional data file.

JNK [7] = experiment: Phosphorylation of Bcl-2 loop peptides by JNK (HPLC); type: biochemical; details: peptide 200 µM, JNK 10 µM, 10 mM Tris-HCl pH 7.5, 25 mM MgCl2, 1 mM EGTA, 1 mM ATP, 30°C, 1 h; C-18 HPLC, 225 nm
Description: as §1, §3, §4

Compound | degree of phosphorylation by ERK2 (ERK2 [6]) | degree of phosphorylation by JNK (JNK [7]) | also measured
CC(C)C[C@H](NC(=O)[C@H](C)NC(=O)[C@@H]1CCCN1C(=O)CN)C(=O)N[C@@H](COP(=O)(O)O)C(=O)N1CCC[C@H]1C(=O)N[C@H](C(=O)N1CCC[C@H]1C(=O)N1CCC[C@H]1C(=O)N[C@H](C(=O)O)C(C)C)C(C)C [pS87] (H-GPAL[pS]PVPPV-OH) | – | – | Kd (Pin1 [1]): ~140 µM
Bcl-2 (from UniProt P10415) pS87 peptide | – | – | binding against the reference (Pin1 [2]): gained; reference no interaction
Bcl-2 (from UniProt P10415) pT56 peptide | – | – | binding against the reference (Pin1 [3]; reference: unphosphorylated T56 peptide, sites T56): gained
Bcl-2 (from UniProt P10415) pT74 peptide | – | – | binding against the reference (Pin1 [3]; reference: unphosphorylated T74 peptide, sites T74): gained
Bcl-2/S87A: single mutant form of Bcl-2 protein | – | – | ERK2-mediated phosphorylation of Bcl-2 protein (ERK2 [4]): affected; JNK-mediated phosphorylation of Bcl-2 protein (JNK [5]): affected
Bcl-2/T56A: single mutant form of Bcl-2 protein | – | – | JNK-mediated phosphorylation of Bcl-2 protein (JNK [5]): abolished
GPALSPVPPV [S87, synthetic peptide derived from the Bcl-2 loop covering S87] | preferred phosphorylation | preferred phosphorylation | –
PLQTPAAPGA [T74, synthetic peptide derived from the Bcl-2 loop covering T74] | poorly phosphorylated | poorly phosphorylated | –
PVARTSPLQT [S70, synthetic peptide derived from the Bcl-2 loop covering S70] | poorly phosphorylated | poorly phosphorylated | –
QPGHTPHPAA [T56, synthetic peptide derived from the Bcl-2 loop covering T56] | able to phosphorylate the T56 peptide to a similar level | able to phosphorylate the T56 peptide to a similar level | –
